Data: US8420658B2, “Use of Carboxyamidotriazole (CAI) orotate in macular degeneration” (Tactical Therapeutics Inc, priority 2006, dated 2013)

Experiments:
[1] = test system: Human umbilical vein endothelial cells (HUVEC); experiment: Proliferation assay for endothelial cells (HUVEC), cell count after 3 days of treatment; format: cell-based; conditions: HUVEC treated with three different concentrations for 3 days; triplicate; FIG. 1
Experimental: FIG. 1 illustrates the results of the proliferation assay for endothelial cells (HUVEC).
Human umbilical vein endothelial cells (HUVEC) were treated with three different concentrations of Carboxyamidotriazole or 5 amino 1,2,3-triazole orotate (CAI Orotate) for 3 days. The cell number of each culture under different treatment conditions was counted. The assays were done in triplicate and the data are expressed as mean +/− standard deviation.

[2] = test system: Dunning rat model for prostate cancer; conditions: orotate salt of CAI compared with CAI; from U.S. Pat. Nos. 5,861,406 and 5,912,346; cited from earlier work

## NC(=O)c1nnn(Cc2cc(Cl)c(C(=O)c3ccc(Cl)cc3)c(Cl)c2)c1N.O=C(O)c1cc(=O)[nH]c(=O)[nH]1 [CAI Orotate, Carboxyamidotriazole or 5 amino 1,2,3-triazole orotate]
[1]
  Inhibition of angiogenesis (HUVEC cell number): inhibited angiogenesis in a dose related manner
[2]
  Antitumor effect compared with CAI: improved antitumor effect
